The text below walks through data of patent US20260364068A1, “ANTIVIRAL USE OF HETEROARYL DERIVATIVE COMPOUND” (UIF (University Industry Foundation), Yonsei University, priority 2022, published 2026).

Like-named read-outs stand apart in the source and are kept apart here. A value given as a limit tells only on which side of the number the result lay.

What all share (format): cell-based
One data set deals with T1, human ANO6 (variant 5) (Homo sapiens, UniProt Q4KMQ2).
T1 construct: expressed in transfected cells; host or cells: Fisher rat thyroid (FRT) cells
T1 sequence (Q4KMQ2 1-931 isoform Q4KMQ2-2): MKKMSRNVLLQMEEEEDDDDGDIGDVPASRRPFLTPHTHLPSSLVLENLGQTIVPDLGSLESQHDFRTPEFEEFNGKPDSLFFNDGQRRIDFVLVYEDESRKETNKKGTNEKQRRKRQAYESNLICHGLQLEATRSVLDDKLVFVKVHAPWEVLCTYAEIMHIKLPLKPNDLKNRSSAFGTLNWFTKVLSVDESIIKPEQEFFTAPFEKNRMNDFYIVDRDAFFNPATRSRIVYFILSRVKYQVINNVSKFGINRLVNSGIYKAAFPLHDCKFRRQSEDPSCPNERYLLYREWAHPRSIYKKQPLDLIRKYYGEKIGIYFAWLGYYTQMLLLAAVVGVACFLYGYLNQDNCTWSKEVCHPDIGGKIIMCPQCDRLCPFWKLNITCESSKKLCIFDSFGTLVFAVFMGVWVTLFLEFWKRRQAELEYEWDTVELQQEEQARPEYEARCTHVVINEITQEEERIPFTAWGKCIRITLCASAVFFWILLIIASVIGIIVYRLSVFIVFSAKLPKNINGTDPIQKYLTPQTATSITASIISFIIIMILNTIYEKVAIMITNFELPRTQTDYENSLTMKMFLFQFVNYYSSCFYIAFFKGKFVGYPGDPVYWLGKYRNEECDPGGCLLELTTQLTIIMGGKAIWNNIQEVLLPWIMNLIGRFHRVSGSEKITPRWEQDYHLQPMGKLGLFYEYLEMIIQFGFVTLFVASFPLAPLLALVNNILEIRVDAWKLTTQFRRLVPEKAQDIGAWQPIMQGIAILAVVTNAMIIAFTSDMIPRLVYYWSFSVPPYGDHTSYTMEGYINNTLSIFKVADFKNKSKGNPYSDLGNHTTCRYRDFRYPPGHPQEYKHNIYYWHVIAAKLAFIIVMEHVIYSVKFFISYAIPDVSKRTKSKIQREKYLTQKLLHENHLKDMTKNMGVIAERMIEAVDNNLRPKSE
Briefly: Lact C2 assay (phosphatidylserine externalization scramblase function). As to conditions: FRT cells expressing human ANO6, ionomycin 10 μM, read-out: % Inhibition (phosphatidylserine externalization inhibitory activity); for inhibition at 0.05 µM: 50 nM. On the procedure:
Experimental Example 2: Lact C2 Assay (Measuring Phosphatidylserine Externalization Scramblase Function)
Ionomycin (Alomonelab, cat. #I-700), DAPI (Sigma-Aldrich, cat. #D8417), paraformaldehyde (Biosesang, cat. #P2031), Lionheart FX automated fluorescence microscope (BioTek), Gen5™ software program (BioTek), and Image J analysis software program.
Fisher rat thyroid (FRT) cells expressing human ANO6 (variant 5; GenBank accession no. NP_001191732.1) were cultured at 37 °C under 5% CO2 conditions in DMEM/Ham's F-12 (1:1) medium supplemented with 10% Fetal Bovine Serum, 2 mM […], 100 units/mL penicillin, and 100 μg/mL streptomycin.
Fischer Rat Thyroid (FRT) cells (2×10^4 cells/well) expressing human ANO6 (variant 5) were cultured in a 96-well microplate for 24 hours. After the incubation, the cells were treated with compounds dissolved in DMSO to 1% v/v in each well at each concentration (50 nM, 100 nM, and 1 μM) and reacted for 10 minutes. Thereafter, each well was treated with ionomycin to a final concentration of 10 μM, allowed to react for 10 minutes, and then washed with 200 μL PBS. After washing, each well was treated with 50 μL of Lactadherin-C2 (Lact-C2)-GFP mixed in DMEM medium to a final concentration of 500 nM to stain phosphatidylserine, and cultured at 37 °C for 10 minutes. After completion of the reaction, the cells were washed with 200 μL PBS, and fixed with 4% paraformaldehyde for 5 minutes at room temperature. For morphological analysis, DAPI solution was added, and the cells were incubated for 15 minutes, followed by washing with PBS. The fluorescence intensity of Lact-C2-GFP bound to phosphatidylserine on the cell surface was measured using an automated fluorescence microscope. For quantitative analysis of the fluorescence intensity of Lact-C2-GFP, BioTek Gen5™ software and Image J analysis software programs were used.
Phosphatidylserine externalization inhibitory activity (%) by the compound was calculated through the following analysis method. Specifically, the background fluorescence value was subtracted from the measured Lact-C2-GFP fluorescence value, and the fluorescence value of the ionomycin non-treatment group and the ionomycin-treatment group in the same row where each test group was located in a 96-well microplate were calculated. In order to calculate the inhibitory activity (%) by the compound, the relative inhibitory activity was calculated by setting the compound and ionomycin non-treatment group to 100% inhibitory activity and the ionomycin alone treatment group to 0% inhibitory activity. To derive the results, the test was repeated three times, and the average values of the results were classified according to the range below and shown in Table 4 below (A: >60% inhibition, B: 30 to 60% inhibition, N/A: no test).

The test system of data set [1] is Severe Acute Respiratory Syndrome Coronavirus Type 2. In words: microbe, parasite or virus in culture. The following applies: Vero, 10 uM, virus strain NCCP-43388, 48 hours, read-out: Virus replication inhibition efficacy.
Data set [2] has the same test system. Briefly: microbe, parasite or virus in culture. As to conditions: Calu-3, 10 uM, virus strain NCCP-43388, 48 hours, read-out: Virus replication inhibition efficacy.
Data set [3] is described as follows: Cell viability measurement (MTS), Calu-3 cells. The following applies: human, 10 μM. The method, boiled down: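 Calu-3 cells at about 20% confluency treated with compounds at 1, 3 and 10 μM (0.5% v/v DMSO) for 48 h at 37 °C. MTS added for 1 h; A490 minus A690 background, normalized to DMSO control as 100%; mean of 2–6 repeats, binned into viability ranges.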

A word on the inhibition: it is the share of the control response that was lost under treatment. Consider `CN(Cc1ccccc1)c1ccc2nc(-c3cccc(Nc4ccc(-c5cccnn5)cc4)c3)[nH]c2c1` [Example 280, N-benzyl-N-methyl-2-(3-((4-(pyridazin-3-yl)phenyl)amino)phenyl)-1H-benzo[d]imidazol-6-amine], for which, on human ANO6 (variant 5), the inhibition at 0.05 µM lay in the range of 30 to 60% and the inhibition at 1 µM was over 60%. Besides, the inhibition at 10 µM in data set [1] was over 60%. Moreover, the inhibition at 10 µM in data set [2] was over 60%.

The viability is a read-out of living cells in per cent, often relative to untreated cells. Higher therefore signals less harm to the cells. In the case of `Fc1cc2nc(-c3cccc(Nc4ncc(-c5ccccn5)cn4)c3)[nH]c2cc1F` [Example 313, N-(3-(5,6-difluoro-1H-benzo[d]imidazol-2-yl)phenyl)-5-(pyridin-2-yl)pyrimidin-2-amine], at human ANO6 (variant 5), the inhibition at 0.05 µM was over 60% and the inhibition at 1 µM was over 60%. In data set [3], this compound returned a viability at 48 h, 10 µM of over 80%.

For `FC(F)Oc1cc2[nH]c(-c3cccc(Nc4ccc(-c5cccnn5)cc4)c3)nc2cn1` [Example 331, 3-(6-(difluoromethoxy)-1H-imidazo[4,5-c]pyridin-2-yl)-N-(4-(pyridazin-3-yl)phenyl)aniline], on human ANO6 (variant 5), the inhibition at 0.05 µM is 30 to 60% and the inhibition at 1 µM was over 60%. Also, the viability at 48 h, 10 µM in data set [3] is over 80%.

Consider `FC(F)Oc1cc2[nH]c(-c3cccc(Nc4cnc(-c5ccccn5)cn4)c3)nc2cn1` [Example 336, N-(3-(6-(difluoromethoxy)-1H-imidazo[4,5-c]pyridin-2-yl)phenyl)-5-(pyridin-2-yl)pyrazin-2-amine], for which, at human ANO6 (variant 5), the inhibition at 0.05 µM was over 60% and the inhibition at 1 µM is over 60%. This compound also had a viability at 48 h, 10 µM in data set [3] of over 80%.

As for `Fc1ccc2nc(-c3cccc(Nc4cnc(-c5ccccn5)cn4)c3)[nH]c2c1` [Example 323, N-(3-(6-fluoro-1H-benzo[d]imidazol-2-yl)phenyl)-5-(pyridin-2-yl)pyrazin-2-amine], at human ANO6 (variant 5), the inhibition at 0.05 µM fell in the range of 30 to 60% and the inhibition at 1 µM is over 60%. Moreover, in data set [3], the viability at 48 h, 10 µM is over 80%.

Consider `Clc1ccc2nc(-c3cccc(Nc4cnc(-c5ccccn5)cn4)c3)[nH]c2c1` [Example 324, N-(3-(6-chloro-1H-benzo[d]imidazol-2-yl)phenyl)-5-(pyridin-2-yl)pyrazin-2-amine], for which, on human ANO6 (variant 5), the inhibition at 0.05 µM was in the range of 30 to 60% and the inhibition at 1 µM was over 60%. For the same compound, the viability at 48 h, 10 µM in data set [3] was over 80%.

With `Fc1cc2nc(-c3cccc(Nc4ncc(-c5cscn5)cn4)c3)[nH]c2cc1F` [Example 332, N-(3-(5,6-difluoro-1H-benzo[d]imidazol-2-yl)phenyl)-5-(thiazol-4-yl)pyrimidin-2-amine], at human ANO6 (variant 5), the inhibition at 0.05 µM was over 60% and the inhibition at 1 µM is over 60%. Also, the viability at 48 h, 10 µM in data set [3] was over 80%.
